Test results as given in patent EP4711361A1, “NITROGEN-CONTAINING HETEROCYCLIC COMPOUND AND USE THEREOF” (Jiangsu Deyuan Pharmaceutical Co.,Ltd., priority 2023, dated 2024).

Experiments:
human CYP11B2 = molecular target: T1, human CYP11B2 (Homo sapiens, UniProt P19099); test: In vitro activity assay of monoclonal cells overexpressing human CYP11B2; format: cell-based; conditions: G402 cells overexpressing human CYP11B2; 1 µM 11-deoxycorticosterone, 16 hours; aldosterone by LC-MS/MS
T1 construct: expressed in transfected cells; host or cells: human renal leiomyoma G402 cells (monoclonal)
T1 sequence (P19099 25-503): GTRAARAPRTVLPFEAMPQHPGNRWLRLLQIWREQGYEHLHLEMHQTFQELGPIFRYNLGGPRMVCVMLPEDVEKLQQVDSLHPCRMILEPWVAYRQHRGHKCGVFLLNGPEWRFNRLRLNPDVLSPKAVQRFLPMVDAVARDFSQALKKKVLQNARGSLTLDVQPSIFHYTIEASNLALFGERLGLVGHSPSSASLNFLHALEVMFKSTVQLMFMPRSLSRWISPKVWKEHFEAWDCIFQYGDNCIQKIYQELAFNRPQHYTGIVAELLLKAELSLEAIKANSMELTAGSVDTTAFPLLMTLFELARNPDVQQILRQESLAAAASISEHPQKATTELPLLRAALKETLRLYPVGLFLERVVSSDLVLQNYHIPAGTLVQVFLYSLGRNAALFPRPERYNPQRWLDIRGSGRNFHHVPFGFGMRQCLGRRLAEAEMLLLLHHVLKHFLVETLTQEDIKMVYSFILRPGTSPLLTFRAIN
Experimental: The human renal leiomyoma G402 cell line overexpressing human CYP11B2 was selected to serve as a compound activity screening system. Table 1: Cell and reagent information
2) Compound details: The test compound was prepared as a 10 µM working concentration using DMSO. 3) Experimental procedure
Day 1: Cells were digested, and human renal leiomyoma G402 cells overexpressing human CYP11B2 were resuspended to 1×10^5 cells/mL, with 100 µL seeded into a 96-well plate.
(§1) Day 3: The cell supernatant was collected and added to 200 µL of a methanol solution containing internal standards (internal standards: 35 ng/mL ketoprofen or 7.5 ng/mL carbamazepine or 5 ng/mL diphenhydramine or 10 ng/mL tolbutamide). The mixture was vortexed and centrifuged (4000×g, 4°C, 5 minutes). Then, 100 µL of the supernatant was taken and mixed with 100 µL of pure water.
Ratio = Aldosterone peak area/Internal standard peak area [formula] Control activity% = (Ratiotestcompound/RatioDMSO) × 100% [formula]
(§2) "Ratio test compound" represents the Ratio values at different concentrations of the test compound.
(§3) "Ratio DMSO" represents the Ratio value without the addition of the test compound. • X = Log (compound concentration) • Y = Control activity%
The IC50 of the test compound was determined by fitting to a nonlinear regression equation using XLfit 5.5.0. Table 3: Results for in vitro activity assay of monoclonal cells overexpressing human CYP11B2

human CYP11B1 = molecular target: T2, human CYP11B1 (Homo sapiens, UniProt P15538); test: In vitro activity assay of monoclonal cells overexpressing human CYP11B1; format: cell-based; conditions: G402 cells overexpressing human CYP11B1; 1 µM 11-deoxycortisol, 16 hours; cortisol by LC-MS/MS
T2 construct: expressed in transfected cells; host or cells: human renal leiomyoma G402 cells (monoclonal)
T2 sequence (P15538 25-503): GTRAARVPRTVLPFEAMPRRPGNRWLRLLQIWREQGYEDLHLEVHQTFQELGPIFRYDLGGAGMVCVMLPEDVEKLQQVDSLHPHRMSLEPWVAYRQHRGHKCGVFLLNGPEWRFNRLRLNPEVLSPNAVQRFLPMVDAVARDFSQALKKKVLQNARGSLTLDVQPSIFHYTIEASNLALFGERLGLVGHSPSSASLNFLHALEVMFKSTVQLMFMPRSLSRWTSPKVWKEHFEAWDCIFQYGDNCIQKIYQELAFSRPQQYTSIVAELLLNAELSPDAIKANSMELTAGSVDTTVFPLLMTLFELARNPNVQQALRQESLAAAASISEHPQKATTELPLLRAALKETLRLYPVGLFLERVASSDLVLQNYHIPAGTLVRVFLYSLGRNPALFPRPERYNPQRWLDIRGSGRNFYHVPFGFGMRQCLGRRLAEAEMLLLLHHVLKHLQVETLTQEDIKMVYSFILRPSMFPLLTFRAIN
Experimental: The human renal leiomyoma G402 cell line overexpressing human CYP11B1 was selected to serve as a compound selectivity screening system.
Day 1: Cells were digested, and human renal leiomyoma G402 cells overexpressing CYP11B1 were resuspended to 1×10^5 cells/mL, with 100 µL seeded into a 96-well plate.
as §1
Ratio = Cortisol peak area/Internal standard peak area [formula] Control activity% = (Ratiotestcompound/RatioDMSO) × 100% [formula]
as §2, §3
The IC50 of the test compound was determined by fitting to a nonlinear regression equation using XLfit 5.5.0. Table 4: Results for in vitro activity assay of monoclonal cells overexpressing human CYP11B1

MDR1-MDCKII cells = test: Permeability test (MDR1-MDCKII monolayer, bidirectional transport); format: in vitro ADME; conditions: 2 µM; for Efflux ratio (ER): ER = Papp (BA)/ Papp (AB), 150 min; for Apparent permeability coefficient (Papp (AB), 10^-6 cm/s): pH 7.40, 2.5 hours, A to B
Experimental: Experimental objective: The permeability and efflux ratio of the compound of the present disclosure were determined using the MDR1-MDCKII monolayer cell model to assess its membrane permeability and potential for P-gp-mediated efflux transport.
Experimental protocol: MDR1-MDCKII cells (obtained from the Netherlands Cancer Institute) were seeded in 96-well plates (obtained from Corning) at a cell density of 3.33 × 10^5 cells/mL and cultured for 4 to 7 days to form confluent cell monolayers. Hank's balanced salt solution containing 10 mM HEPES (pH 7.40) was used as the transport buffer. The test compound was evaluated for bidirectional transport at a concentration of 2 µM, with the DMSO concentration in the incubation system maintained below 1%. After adding the samples, the cell plate was incubated at 37±1°C, 5% CO2, and saturated humidity for 2.5 hours. All samples were quantitatively analyzed using the LC-MS/MS method. The apparent permeability coefficient (Papp, cm/s) and efflux ratio (ER) were calculated using the following formula. Apparent permeability coefficient (Papp, cm/s) was calculated using the following formula: Papp = (dCr/dt) x Vr / (A x C0). Herein, dCr/dt represents the cumulative concentration of the compound at the receiving end per unit time (µM/s); Vr is the volume of the solution at the receiving end (with solution volumes at the apical and basolateral ends being 0.075 mL and 0.250 mL, respectively); A is the relative surface area of the cell monolayer (0.143 cm^2); C0 is the initial concentration of the test substance at the dosing end (µM) or the peak area ratio of the reference substance. The efflux ratio was calculated using the following formula: ER = Papp (BA)/ Papp (AB). Table 7: Permeability test results of compounds

[1] = test system: patients with resistant hypertension; conditions: cited from earlier work
[2] = 2 mg dose, patients with resistant hypertension

SMILES	IC50 (human CYP11B2) [nM]	IC50 (human CYP11B1) [µM]	Efflux ratio (ER) (MDR1-MDCKII cells)	Apparent permeability coefficient (Papp (AB), 10^-6 cm/s) (MDR1-MDCKII cells)	other results
CCC(=NOC)NC1CCCc2c(-c3ccc4c(c3)CCC(=O)N4C)cncc21 (single isomer, unassigned) [Compound 005]	19.5	1.42	0.70	23.1 10^-6 cm/s	–
CCC(=O)NC1CCCc2c(-c3ccc4c(c3)OCC(=O)N4C)cncc21 (single isomer, unassigned) [Compound 010]	71.5	6.88	–	–	–
CCC(=O)NC1CCCc2c(-c3ccc4c(c3)OCC(=O)N4C)cncc21 (single isomer, unassigned) [Compound 011]	59.7	6.91	0.89	24.3 10^-6 cm/s	–
Cn1c(=O)ccc2cc(-c3cncc4c3CCC[C@H]4NC(=O)c3ncccc3Cl)ccc21 (single isomer, unassigned) [Compound 014]	20.6	–	–	–	–
Cc1noc(C)c1C(=O)NC1CCCc2c(-c3ccc4c(ccc(=O)n4C)c3)cncc21 (single isomer, unassigned) [Compound 015]	31.8	–	–	–	–
CCC(=O)NC1CCCc2c(-c3cc(F)c4c(c3)OCC(=O)N4C)cncc21 (single isomer, unassigned) [Compound 031]	22.6	4.74	0.89	20.0 10^-6 cm/s	–
CCC(=O)NC1CCCc2c(-c3cc4c(cc3F)N(C)C(=O)CO4)cncc21 (single isomer, unassigned) [Compound 032]	30.1	5.65	0.86	22.6 10^-6 cm/s	–
CCC(=O)NC1CCOc2c(-c3cc4ccc(=O)n(C)c4s3)cncc21 (single isomer, unassigned) [Compound 045]	42.7	34.9	1.30	16.7 10^-6 cm/s	–
CCC(=O)NC1CCOc2c(-c3cc4c(s3)N(C)C(=O)CC4)cncc21 (single isomer, unassigned) [Compound 046]	13.3	1.57	1.17	18.0 10^-6 cm/s	–
CCC(=O)N[C@@H]1CCCc2c(-c3ccc4c(c3)CCC(=O)N4C)cncc21 [Baxdrostat]	–	–	–	–	office systolic and diastolic blood pressure [1, 2]: demonstrated efficacy; safety and tolerability [1, 2]: favorable safety and tolerability profiles; aldosterone secretion levels ([1]; clinical studies): dose-dependent reduction; blood pressure ([1]; clinical studies): dose-dependent reduction; blood pressure reduction ([1]; phase 2 trials): significant blood pressure reduction; cortisol levels ([1]; phase 2 trials): no impact on cortisol levels; elevated blood potassium ([1]; phase 2 trials): rare occurrence of elevated blood potassium; steroid precursor accumulation ([1]; phase 2 trials): absence of steroid precursor accumulation
CCS(=O)(=O)N1CC(Oc2cncc(-c3ccc4c(c3)OCC(=O)N4C)c2)C1 [Compound 016]	63.6	–	–	–	–

Second part, led by results:

IC50 (human CYP11B2) [nM]	SMILES	IC50 (human CYP11B1) [µM]	Efflux ratio (ER) (MDR1-MDCKII cells)	Apparent permeability coefficient (Papp (AB), 10^-6 cm/s) (MDR1-MDCKII cells)	other results
65.5	CCC(=O)NC1CCCc2c(-c3ccc4c(c3)C3CC3C(=O)N4C)cncc21 (single isomer, unassigned) [Compound 025]	–	–	–	–
48.7	CCC(=O)NC1CCN(C2CCCc3c(-c4ccc5c(ccc(=O)n5C)c4)cncc32)CC1 (single isomer, unassigned) [Compound 030]	2.18	–	–	–
42.2	CCC(=O)NC1CCCc2c(-c3nc4ccc(=O)n(C)c4s3)cncc21 (single isomer, unassigned) [Compound 041]	6.75	–	–	–
41	CCC(=O)NC1CCCc2c(-c3ccc4c(ccc(=O)n4C)c3Cl)cncc21 (single isomer, unassigned) [Compound 042]	–	–	–	–
7.02	CCC(=O)NC1CCc2c(-c3ccc4c(ccc(=O)n4C)c3)cncc21 (single isomer, unassigned) [Compound 048]	2.49	–	–	–
